Test systems include CAKI-1 renal; NCI/ADR-RES ovarian; SK-OV-3 ovarian.
Common to all, as to test: growth of human tumour cells (NCI), 48 h

This passage reports GI50 and TGI results from PubChem BioAssay (NCI).

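How tested: cells in 96-well plates exposed to compound for 48 hours at five concentrations. Abbreviation: GI50, concentration required for 50% inhibition of growth. TGI is the concentration that stops growth completely.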

Regarding `Cc1c2c(cc[n+]1Cc1ccc(F)cc1)c1ccc(OCc3cccc(F)c3)cc1n2Cc1cccc(F)c1`, the GI50 with CAKI-1 renal was 2.02 µM; with NCI/ADR-RES ovarian, 8.62 µM; in the assay on SK-OV-3 ovarian, 1.81 µM. Moreover, the TGI in the assay on CAKI-1 renal was 5.55 µM; in the assay on NCI/ADR-RES ovarian it was > 100 µM; in the assay on SK-OV-3 ovarian it was 3.28 µM.
